From PMC10726367 (Journal of Medicinal Chemistry, 2023)

Legend:
[1] = molecular target: T1, SERCA2a (Mus musculus, UniProt O55143); assay: Caffeine-induced Ca2+ release assay in HL-1 cells (FLIPR Calcium 6); format: cell-based; settings: HL-1 cells, 2 h incubation at various concentrations, 10 mM caffeine
T1 construct: host or cells: HL-1 cells
Excerpt: It is known that caffeine stimulates the release of calcium from intracellular stores in cells by acting as a RyR activator.[39],[40] The binding site for caffeine is located on the cytosolic side of the protein between the C-terminal and the S2S3 domain.[41] When caffeine binds to RyR2, it interacts with specific amino acids on the protein, which causes conformational changes in the protein’s structure.[42] This opens the RyR2 channel pore, enabling the mass release of calcium ions from the SR. We investigated the effect of caffeine-induced Ca^2+ release in HL-1 cells treated with cytosolic Ca^2+ indicator FLIPR Calcium 6 (Molecular Devices). The HL-1 cell line is an immortalized mouse cardiomyocyte cell line commonly used to study the effects of various substances on cell function.[43] If the tested compound modulates SERCA2a activation, it will cause an increase in Ca^2+ concentration in the SR and the effect of a fixed dose of caffeine on SR Ca^2+ release will be potentiated by increasing doses of a proposed SERCA activator.[26] As a positive control, we used CDN1163, a small-molecule SERCA activator, which is at present in a clinical trial due to its potential therapeutic use for certain cardiac conditions.[27]
HL-1 cells (50,000 per well) were cultivated for 24 h in black-walled, clear-bottom 96-well microplates (Corning, Amsterdam, The Netherlands) covered with fibronectin/gelatin (Merck KGaA, Darmstadt, Germany) in a humidified incubator at 37 °C and 5% CO2.
Changes in Ca^2+ concentration were measured on a multiwell plate reader TECAN Spark 20 M using a FLIPR 6 Calcium Assay Kit from Molecular Devices (Molecular Devices LLC, München, Germany) at 37 °C. The 1000 × stock solutions of the test compounds were prepared in DMSO. A 100 μL solution of test compound in Tyrode’s solution containing FLIPR Calcium 6 dye was incubated for 2 h at 37 °C and 5% CO2 in a humidified incubator. The time courses were recorded in each well. Fluorescence was evoked at 485 nm excitation wavelength and read out in a bottom-read mode at 525 nm. Data were recorded every 2 s, exposure −20 flashes, excitation bandwidth −10 nm, emission bandwidth −15 nm. To initiate Ca^2+ influx, 25 μL of 50 mM caffeine solution in Tyrode’s solution containing 2 mM CaCl2 was injected in each well (speed 100 μL/s) at the 10 s time point, resulting in 10 mM final concentration in the well. The differences between the caffeine-induced peak minus basal fluorescence, ΔFCaff, were taken into account for the analysis. The Tyrode’s solution +0.1 v/v% DMSO was used as a control. The dose–response curves were calculated using the software package GraphPad Prism version 8.3.1. All data are presented as mean ± SD from eight independent experiments. Y = bottom + (top – bottom)/(1 + 10^((LogEC50 – X) × HillSlope)) was used, where HillSlope describes the steepness of the curve and top and bottom are plateaus in the units of the Y axis.

[2] = CytoTox-Glo Cytotoxicity Assay; format: cell-based; settings: mouse; HL-1 cells, 100 μM solutions, 24 h incubation
Experimental: Cell viability was assessed using the CytoTox-Glo Cytotoxicity Assay according to the manufacturing procedure (Promega GmbH). Briefly, HL-1 cells were cultivated for 24 h in black-walled, clear-bottom 96-well microplates (Corning) covered with fibronectin in DMEM, containing different concentrations of the tested compound (10,000 cells/well). Luminescence of a luminogenic peptide substrate was measured before and after the addition of the lysis reagent (digitonin). The viable cell contribution was determined by a subtractive method. 0.1% DMSO-treated cells were taken as a control.

[3] = Membrane permeability, PermeaPad Plate (cell-free transport model); format: in vitro ADME; settings: for Pe: 24 h, room temperature; for Pe class (low/medium/high; poor): class word printed beside Pe, no key given
Experimental: Membrane permeability was assessed using PermeaPad Plate according to the manufacturing procedure (innoME GmbH, Espelkamp, Germany). Briefly, 200 μL of water was added into the acceptor plate. 200 μL of 100–500 μM test compound in water was added directly to the well membranes of the donor plate. The donor plate contains a biomimetic membrane for simulating passive mass transfer through different barriers in the body. Then, the donor plate was placed into the acceptor plate wells and incubated at room temperature for 24 h in the dark. To determine the peak absorbance of test compounds, absorbance spectra of acceptor solutions and initial solutions for each test compound were read out. The permeability rate (Pe) was calculated using the formula:
[drawing 1] , where ODA is the absorbance of acceptor solution and ODE is the absorbance of the standard solution; if the compound is able to permeabilize the membrane and fully reach equilibrium, 250 μM will be the final concentration of solution in the donor and acceptor wells. The coefficient C was calculated using the formula:
[drawing 2] , where VA is the acceptor volume (cm^3), VD is the donor volume (cm^3), the membrane area is 0.24 cm^2, and the time is 86,400 s.

[4] = molecular target: T2, RyR2 (Mus musculus, UniProt E9Q401); assay: Time-lapse [Ca2+]ER assay (RyR2 R-CEPIA1er assay) in HEK-293 cells with inducible WT RyR2; format: cell-based; settings: for effect on [Ca2+]ER / R-CEPIA1er fluorescence (F/F0): 25 μM, vs 0.1 v/v% DMSO
T2 construct: expressed in transfected cells; host or cells: HEK-293 cells stably expressing R-CEPIA1er with doxycycline-inducible WT RyR2
Excerpt: To assess the functional potency of novel agents for modulating RyR2 channel activity, we measured changes in Ca^2+ levels in ER of HEK-293 cells with inducible expression of wild-type RyR2 (WT RyR2).[33],[34] Because the expression of WT RyR2 introduces an additional spontaneous Ca^2+ leak from the ER, these cells are suitable for our purpose of testing potential RyR2 stabilizers.[35] The cells additionally stably express the Ca^2+ fluorescence indicator R-CEPIA1er, which is a genetically encoded sensor protein of Ca^2+ in the ER (the cell line was a gift from T. Murayama, Department of Pharmacology, Juntendo University School of Medicine, Tokyo, Japan).[36]
The addition of these compounds, which are known to inhibit excessive cardiac RyR2 activity, should reduce Ca^2+ leak from the ER, thus increasing the R-CEPIA1er fluorescence.
The fluorescence plate reader [Ca^2+]ER assay was performed according to the slightly modified protocol of Murayama and Kurebayashi.[36] […] After the cells were inducted with doxycycline for 24 h, changes in ER calcium concentrations [Ca^2+]ER were measured on a multiwell plate reader TECAN Spark 20 M at 37 °C. The 1000 × stock solutions of the test compounds were prepared in DMSO. Briefly, the culture medium was removed and 100 μL of Tyrode’s solution containing 2 mM CaCl2 was added to the cells. The time courses were recorded in each well. Fluorescence was evoked by a 560 nm excitation wavelength and collected in a bottom-read mode at 610 nm. Data was recorded every 10 s, exposure −20 flashes, excitation bandwidth −20 nm, emission bandwidth −20 nm. 100 μL of 0–100 μM solution of test compound in Tyrode’s solution containing 2 mM CaCl2 was injected in each well (speed 100 μL/s) at the 90 s time point. […] The 0.1 v/v% DMSO and 2 mM CaCl2 Tyrode’s solution was used as a control.
The dose–response curves were calculated using the software package GraphPad Prism version 8.3.1. (GraphPad Software, Inc.). All data are presented as mean ± SD in three independent experiments. Y = bottom + (top – bottom)/(1 + 10^((LogEC50 – X) × HillSlope)) was used, where HillSlope describes the steepness of the curve, and top and bottom are plateaus in the units of the Y-axis.

T1 sequence (O55143 1-998 isoform O55143-2): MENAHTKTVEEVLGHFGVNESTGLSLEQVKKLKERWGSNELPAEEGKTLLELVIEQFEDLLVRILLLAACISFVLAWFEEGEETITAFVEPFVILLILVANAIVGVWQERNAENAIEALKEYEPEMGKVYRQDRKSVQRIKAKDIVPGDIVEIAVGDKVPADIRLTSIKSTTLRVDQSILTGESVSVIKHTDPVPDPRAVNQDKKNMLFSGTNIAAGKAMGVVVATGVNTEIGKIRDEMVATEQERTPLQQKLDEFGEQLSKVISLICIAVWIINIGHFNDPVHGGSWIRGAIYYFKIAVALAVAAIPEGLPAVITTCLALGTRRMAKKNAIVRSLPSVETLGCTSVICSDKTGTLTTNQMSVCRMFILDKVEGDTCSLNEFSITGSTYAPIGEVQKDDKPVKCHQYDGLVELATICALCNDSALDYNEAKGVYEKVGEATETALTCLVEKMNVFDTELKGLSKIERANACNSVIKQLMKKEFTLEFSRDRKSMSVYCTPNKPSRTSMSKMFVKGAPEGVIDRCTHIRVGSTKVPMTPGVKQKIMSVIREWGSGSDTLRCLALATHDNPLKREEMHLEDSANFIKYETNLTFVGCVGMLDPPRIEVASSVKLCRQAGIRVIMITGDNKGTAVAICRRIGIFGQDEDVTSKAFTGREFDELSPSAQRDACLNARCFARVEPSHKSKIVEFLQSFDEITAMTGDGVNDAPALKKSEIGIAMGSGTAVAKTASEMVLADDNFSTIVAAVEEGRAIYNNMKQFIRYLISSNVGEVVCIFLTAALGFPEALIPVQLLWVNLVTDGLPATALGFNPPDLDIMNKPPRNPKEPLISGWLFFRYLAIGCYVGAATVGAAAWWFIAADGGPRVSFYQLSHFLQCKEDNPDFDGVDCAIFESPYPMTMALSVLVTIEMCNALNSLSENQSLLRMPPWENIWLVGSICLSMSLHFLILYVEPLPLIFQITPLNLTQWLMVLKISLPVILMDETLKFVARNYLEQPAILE

Compound	effect on caffeine-induced Ca2+ release (in words) [1]	viability at 24 h, 100 μM [2] [%]	Pe [3]	Pe class (low/medium/high; poor) [3]	RyR2 effect class ([4]; 25 μM (S107 1 mM per Figure 2), HEK-293 RyR2 R-CEPIA1er cells)	effect on [Ca2+]ER / R-CEPIA1er fluorescence (F/F0) [4]
Cc1ccc2cccc(NC(=O)c3ccc(OC(C)C)cc3)c2n1 [CDN1163, reference compound]	clear dependence of the magnitude of the caffeine effect from the concentration of CDN1163					
COc1ccc2c(c1)CN(C(=O)C(=O)O)CCS2 [S36, reference compound]	no concentration-dependent effect	94	1.0 10^–6 cm/s	poor permeability and low	+++	increase in R-CEPIA1er fluorescence
COc1ccc2c(c1)CN(C)CCS2 [S107, 4-methyl-7-methoxy-2,3,4,5-tetrahydro-1,4-benzothiazepine, reference compound]	did not show any effects on SR Ca^2+ content	98	1.2 10^–6 cm/s	medium		
O=C1CN(/N=C/c2ccc(-c3ccc([N+](=O)[O-])cc3)o2)C(=O)N1 [dantrolene, reference compound]						increase in R-CEPIA1er fluorescence
